Assay results from US9428732B2, “Compositions and methods for differentiating pluripotent stem cells into primitive blood cells and uses thereof” (Primorigen Biosciences, Inc., priority 2011, dated 2016).

Columns and labels:
Type in all cases: cell-based, human
[1] = test system: Pluripotent stem cells (iPS and ES); test: Effects of DEAB on blood cell phenotypes, flow cytometry at Day 16; conditions: DEAB 10 uM vs DMSO
Protocol: (§1) Cells from the differentiation cultures were collected at time points indicated and washed in phosphate-buffered saline (PBS) supplemented with 2% FBS. Adherent cells were individualized using TrypLE (Life Technologies, Carlsbad Calif.), passed through a 27.5-gauge needle and filtered through a 40-70 μm cell strainer (BD Falcon, San Diego, Calif., www.bdbiosciences.com). Cells were treated with 7-aminoactinomycin D (7AAD) before analysis, and positive cells were gated out of results. Cells were stained with fluorescence-conjugated antibodies for the hematopoietic stem and progenitor cell markers CD45, CD43, CD34, CD38, CD90; CD45RA. Cells were analyzed on a FACS Canto (BD, Franklin Lakes, N.J., www.bd.com).
Cells were counted using the FACS cell counter feature (BD) or by cytometer using a bright-field microscope to obtain viable cell numbers. The total numbers of cells of each subpopulation were calculated by multiplying the number of cells by the proportion of cells of that lineage as determined by flow cytometry. Statistical analyses of data points and error bars of this study show mean and standard deviation, with statistical significance assessed by the Student's t-test.
From Example 1, DEAB was selected to move forward into an experiment further establishing the phenotypes of blood cells emerging from the differentiation in order to identify at what stage of differentiation DEAB may exert its effects. Pluripotent stem cells (iPS and ES) were grown and induced to produce embryoid bodies on Day 8 as described. The EBs were then exposed to Differentiation Medium 1 for a total of 8 days with partial medium changes made every other day as described. Cells were harvested on Day 16 and washed in phosphate-buffered saline (PBS) supplemented with 2% FBS. Adherent cells were individualized using TrypLE (Life Technologies, Carlsbad Calif.), passed through a 27.5-gauge needle and filtered through a 40-70 μm cell strainer (BD Falcon, San Diego, Calif., www.bdbiosciences.com). Cells were treated with 7-aminoactinomycin D before analysis and positive cells were gated out of results. Cells were stained with fluorescence conjugated antibodies for the hematopoietic stem and progenitor cell markers CD45, CD43, CD34, CD38, CD90, CD45RA. Cells were analyzed on an FACS Canto (BD, Franklin Lakes, N.J., www.bd.com).

[2] = test system: hematopoietic progenitor cells differentiated from iPS cells; test: Colony Forming Unit (CFU) assay in methyl cellulose with DEAB; conditions: 10 µM DEAB; 14 days MethoCult
Protocol: (§2) The differentiation cultures were trypsinized at the indicated time points and single-cell suspensions were generated following trypsinization. For the Colony Forming Unit (CFU) assays using methyl cellulose cultures, 25% of the cells were plated in 2 ml of MethoCult H4435 (STEMCELL Technologies, Vancouver, BC) in six-well plates. Alternatively, sorted CD45+, CD43+, CD34+, 7AAD-cells were sorted and plated at 500 cells per 2 ml Methocult media. Cells were incubated for 14 days in a humidified incubator at 37° C. with 5% CO2 and evaluated for colonies by bright-field microscopy (Zeiss (Oberkochen, Germany, www.zeiss.com) Axiovert 200 with a Zeiss Axiocam), Cells were resuspended in PBS supplemented with 2% FBS. For the lymphoid myeloid differentiation assays, either CD45+, CD43+, CD34+, 7AAD-hematopoietic progenitors, or CD45+, CD43+, CD34+, CD38−, CD90+, CD45RA− phenotypic HSCs were plated at 20-40 cells per well onto OP9 and OP9delta feeder lines for B-cell and T-cell differentiation, respectively, as previously described (Nozad Charoudeh H, Tang Y, Cheng M, Cilio C M, Jacobsen S E, Sitnicka E., Identification of an NK/T cell-restricted progenitor in adult bone marrow contributing to bone marrow- and thymic-dependent NK cell, Blood, 2010 Jul. 15; 116(2):183-92. NK cell differentiation as well as myeloid cell differentiation was also detected in this differentiation system. […]

[3] = test system: ES and iPS cells; test: Small molecule screen, FACS of cells differentiated from pluripotent stem cells; conditions: relative to DMSO control, DEAB 10 μM, rapamycin 0.1 μM
Protocol: as §1
A small molecule screen was performed to identify compounds that improve the output of hematopoietic progenitor cells (HPCs; CD45+, CD43+, CD34+) and phenotypic hematopoietic stem cells (HSCs; CD45+, CD43+, CD34+, CD38−, CD90+, CD45RA−) differentiated from pluripotent stem cells. Molecules targeting pathways known or suspected of being important in hematopoiesis were screened. […] Cells were analyzed using fluorescence activated cell sorting (FACS; FIGS. 3A, 3B, and 3C) and CFU-GEMM assays (FIG. 3D). […]

[4] = test system: ES and iPS cells; test: Small molecule screen, CFU-GEMM assays of myeloid progenitors; conditions: relative to DMSO control; DEAB 10 μM, rapamycin 0.1 μM; FIG. 3D
Protocol: as §2

CCN(CC)c1ccc(C=O)cc1 [DEAB, 4-diethylaminobenzaldehyde]
blood cells (CD45+, CD43+) ([1]; Day 16): modestly higher values | hematopoietic progenitor cells (CD45+, CD43+, CD34+) ([1]; Day 16): modestly higher values | population of cells exhibiting a hematopoietic stem cell phenotype (CD45+, CD43+, CD34+, CD38−, CD90+, CD45RA−) ([1]; Day 16): substantial improvement | total viable cells ([1]; Day 16): modestly higher values | increase in generation of the phenotypic stem cell phenotype ([1]; FIGS. 4B and 4D): over 3 fold | levels of all four major CFU assay types (CFU-G, CFU-M, CFU-GEMM, BFU-E) [2]: measurable levels | total number of colonies vs cells not differentiated in the presence of DEAB (DMSO control) [2]: more than double | output of total blood cells (CD45+, CD43+) ([3]; FIG. 3C): increased | output of HSCs (CD45+, CD43+, CD34+, CD38−, CD90+, CD45RA−) ([3]; FIGS. 3A and B): increased | output of myeloid progenitors (CFU/BFU) [4]: increased
